Assay results published in PubChem BioAssay AID1963982 (Molecular Pharmacology Branch, DTP, NCI, 2024).
Blank lines part the entries; values can stand above or below the compound they belong to.

System: 313798-341-R-J2-PDC spheroids, viability
Assay: Anticancer human tumor 313798-341-R-J2-PDC patient-derived cervical squamous cell carcinoma cell line growth inhibition [PI3K]
Conditions: spheroids with HUVEC and MSC; for IC50: curve of first compound; for viability, T/C: stronger effect = lower value
Outline: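 High-throughput combination screen: PI3K inhibitors crossed with targeted small molecules on complex spheroids of tumor cells, HUVEC and MSCs at 37 degrees C, 5% CO2. Top concentration was at or near clinical Cmax (otherwise 10 microM), with half-log decrements.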

[1] = second compound 0.00316 µM, first compound 0.0316 µM
[2] = second compound 0.00316 µM, first compound 0.1 µM
[3] = second compound 0.00316 µM, first compound 0.316 µM
[4] = second compound 0.00316 µM, first compound 1 µM
[5] = second compound 0.00316 µM, first compound 3.16 µM
[6] = second compound 0.00316 µM, first compound 10 µM
[7] = second compound 0.01 µM, first compound 0.0316 µM
[8] = second compound 0.01 µM, first compound 0.1 µM
[9] = second compound 0.01 µM, first compound 0.316 µM
[10] = second compound 0.01 µM, first compound 1 µM
[11] = second compound 0.01 µM, first compound 3.16 µM
[12] = second compound 0.01 µM, first compound 10 µM
[13] = second compound 0.0316 µM, first compound 0.0316 µM
[14] = second compound 0.0316 µM, first compound 0.1 µM
[15] = second compound 0.0316 µM, first compound 0.316 µM
[16] = second compound 0.0316 µM, first compound 1 µM
[17] = second compound 0.0316 µM, first compound 3.16 µM
[18] = second compound 0.0316 µM, first compound 10 µM
[19] = second compound 0.1 µM, first compound 0.0316 µM
[20] = second compound 0.1 µM, first compound 0.1 µM
[21] = second compound 0.1 µM, first compound 0.316 µM
[22] = second compound 0.1 µM, first compound 1 µM
[23] = second compound 0.1 µM, first compound 3.16 µM
[24] = second compound 0.1 µM, first compound 10 µM
[25] = second compound 0.316 µM, first compound 0.0316 µM
[26] = second compound 0.316 µM, first compound 0.1 µM
[27] = second compound 0.316 µM, first compound 0.316 µM
[28] = second compound 0.316 µM, first compound 1 µM
[29] = second compound 0.316 µM, first compound 3.16 µM
[30] = second compound 0.316 µM, first compound 10 µM
[31] = second compound 1 µM, first compound 0.0316 µM
[32] = second compound 1 µM, first compound 0.1 µM
[33] = second compound 1 µM, first compound 0.316 µM
[34] = second compound 1 µM, first compound 1 µM
[35] = second compound 1 µM, first compound 3.16 µM
[36] = second compound 1 µM, first compound 10 µM
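Also: spheroids exposed to compounds for seven days.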
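For viability, T/C in this document: 100% = DMSO vehicle control viability.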

IC50 (second compound 0.00316 µM): > 10 µM | IC50 (second compound 0.01 µM): > 10 µM | IC50 (second compound 0.0316 µM): > 10 µM | IC50 (second compound 0.1 µM): < 0.0316 µM | IC50 (second compound 0.316 µM): < 0.0316 µM | IC50 (second compound 1 µM): < 0.0316 µM
Compound: CC1(C)CCC(CN2CCN(c3ccc(C(=O)NS(=O)(=O)c4ccc(NCC5CCOCC5)c([N+](=O)[O-])c4)c(Oc4cnc5[nH]ccc5c4)c3)CC2)=C(c2ccc(Cl)cc2)C1 + COc1c(OCCCN2CCOCC2)ccc2c3n(c(=NC(=O)c4cnc(N)nc4)nc12)CCN3
viability, T/C [1]: 98.3% | viability, T/C [2]: 107% | viability, T/C [3]: 113% | viability, T/C [4]: 101% | viability, T/C [5]: 87.7% | viability, T/C [6]: 102% | viability, T/C [7]: 105% | viability, T/C [8]: 110% | viability, T/C [9]: 88.7% | viability, T/C [10]: 96.5% | viability, T/C [11]: 66.1% | viability, T/C [12]: 95.2% | viability, T/C [13]: 70% | viability, T/C [14]: 77.1% | viability, T/C [15]: 69.3% | viability, T/C [16]: 75.8% | viability, T/C [17]: 47.4% | viability, T/C [18]: 73.2% | viability, T/C [19]: 44.4% | viability, T/C [20]: 41.4% | viability, T/C [21]: 40.3% | viability, T/C [22]: 37.8% | viability, T/C [23]: 35.1% | viability, T/C [24]: 41.2% | viability, T/C [25]: 14.6% | viability, T/C [26]: 14.6% | viability, T/C [27]: 16.5% | viability, T/C [28]: 14.2% | viability, T/C [29]: 13.3% | viability, T/C [30]: 15% | viability, T/C [31]: 9.63% | viability, T/C [32]: 9.06% | viability, T/C [33]: 11.1% | viability, T/C [34]: 10.6% | viability, T/C [35]: 12% | viability, T/C [36]: 11.2%

IC50 (second compound 0.00316 µM): > 10 µM | IC50 (second compound 0.01 µM): > 10 µM | IC50 (second compound 0.0316 µM): > 10 µM | IC50 (second compound 0.1 µM): 0.0349 µM | IC50 (second compound 0.316 µM): < 0.0316 µM | IC50 (second compound 1 µM): < 0.0316 µM
Compound: C[C@@H](NC(=O)c1ncnc(N)c1Cl)c1ncc(C(=O)Nc2cc(C(F)(F)F)c(Cl)cn2)s1 + COc1c(OCCCN2CCOCC2)ccc2c3n(c(=NC(=O)c4cnc(N)nc4)nc12)CCN3
viability, T/C [1]: 99.2% | viability, T/C [2]: 99% | viability, T/C [3]: 102% | viability, T/C [4]: 107% | viability, T/C [5]: 114% | viability, T/C [6]: 111% | viability, T/C [7]: 92.4% | viability, T/C [8]: 95.5% | viability, T/C [9]: 88.2% | viability, T/C [10]: 104% | viability, T/C [11]: 104% | viability, T/C [12]: 103% | viability, T/C [13]: 73.6% | viability, T/C [14]: 84.1% | viability, T/C [15]: 84.4% | viability, T/C [16]: 89.9% | viability, T/C [17]: 97.2% | viability, T/C [18]: 96.9% | viability, T/C [19]: 54% | viability, T/C [20]: 45.5% | viability, T/C [21]: 46.5% | viability, T/C [22]: 48% | viability, T/C [23]: 50.5% | viability, T/C [24]: 46.4% | viability, T/C [25]: 17.9% | viability, T/C [26]: 20.6% | viability, T/C [27]: 19.9% | viability, T/C [28]: 19.6% | viability, T/C [29]: 23.1% | viability, T/C [30]: 16.5% | viability, T/C [31]: 11.7% | viability, T/C [32]: 12.9% | viability, T/C [33]: 13.2% | viability, T/C [34]: 13.3% | viability, T/C [35]: 14.5% | viability, T/C [36]: 12.5%

IC50 (second compound 0.00316 µM): > 0.1 µM | IC50 (second compound 0.01 µM): > 0.1 µM | IC50 (second compound 0.0316 µM): > 0.1 µM | IC50 (second compound 0.1 µM): < 0.000316 µM | IC50 (second compound 0.316 µM): < 0.000316 µM | IC50 (second compound 1 µM): < 0.000316 µM
Compound: Cn1ncnc1[C@H]1c2n[nH]c(=O)c3cc(F)cc(c23)N[C@@H]1c1ccc(F)cc1 + COc1c(OCCCN2CCOCC2)ccc2c3n(c(=NC(=O)c4cnc(N)nc4)nc12)CCN3
viability, T/C (second compound 0.00316 µM, first compound 0.000316 µM): 97.5% | viability, T/C (second compound 0.00316 µM, first compound 0.001 µM): 95.9% | viability, T/C (second compound 0.00316 µM, first compound 0.00316 µM): 107% | viability, T/C (second compound 0.00316 µM, first compound 0.01 µM): 111% | viability, T/C [1]: 97.9% | viability, T/C [2]: 93.1% | viability, T/C (second compound 0.01 µM, first compound 0.000316 µM): 106% | viability, T/C (second compound 0.01 µM, first compound 0.001 µM): 107% | viability, T/C (second compound 0.01 µM, first compound 0.00316 µM): 99% | viability, T/C (second compound 0.01 µM, first compound 0.01 µM): 89.6% | viability, T/C [7]: 87.9% | viability, T/C [8]: 87.3% | viability, T/C (second compound 0.0316 µM, first compound 0.000316 µM): 68.4% | viability, T/C (second compound 0.0316 µM, first compound 0.001 µM): 97.1% | viability, T/C (second compound 0.0316 µM, first compound 0.00316 µM): 75.8% | viability, T/C (second compound 0.0316 µM, first compound 0.01 µM): 71.5% | viability, T/C [13]: 64.2% | viability, T/C [14]: 65.1% | viability, T/C (second compound 0.1 µM, first compound 0.000316 µM): 39.6% | viability, T/C (second compound 0.1 µM, first compound 0.001 µM): 49.8% | viability, T/C (second compound 0.1 µM, first compound 0.00316 µM): 46.6% | viability, T/C (second compound 0.1 µM, first compound 0.01 µM): 43.6% | viability, T/C [19]: 42.4% | viability, T/C [20]: 37.1% | viability, T/C (second compound 0.316 µM, first compound 0.000316 µM): 17.3% | viability, T/C (second compound 0.316 µM, first compound 0.001 µM): 18.4% | viability, T/C (second compound 0.316 µM, first compound 0.00316 µM): 15.1% | viability, T/C (second compound 0.316 µM, first compound 0.01 µM): 15.7% | viability, T/C [25]: 12.8% | viability, T/C [26]: 15.7% | viability, T/C (second compound 1 µM, first compound 0.000316 µM): 11.8% | viability, T/C (second compound 1 µM, first compound 0.001 µM): 14.1% | viability, T/C (second compound 1 µM, first compound 0.00316 µM): 14.5% | viability, T/C (second compound 1 µM, first compound 0.01 µM): 12.5% | viability, T/C [31]: 13.9% | viability, T/C [32]: 10.1%
